Earlier results, collected in patent publication US20150342872A1 (CRITITECH, INC., priority 2014, published 2015).

Experiments:
[1] = tested on: microtubule bundling and cytotoxic effects
[2] = 3-hour infusion, 135 versus 175 mg/m2

increase of AUC (0-∞) for a 30% increase in dose [2]: 89%
SMILES: CC(=O)O[C@H]1C(=O)[C@@]2(C)[C@H]([C@H](OC(=O)c3ccccc3)[C@]3(O)C[C@H](OC(=O)[C@H](O)[C@@H](NC(=O)c4ccccc4)c4ccccc4)C(C)=C1C3(C)C)[C@]1(OC(C)=O)CO[C@@H]1C[C@@H]2O [paclitaxel]
minimal concentration required to induce microtubule bundling and cytotoxic effects [1]: > 0.1 µmol/L
